Measurements as given in patent US8268858B2, “Compounds and methods for kinase modulation, and indications therefor” (Plexxikon Inc., priority 2006, dated 2012).

Assays:
Assay type in all cases: biochemical
B-Raf = B-Raf (Homo sapiens, UniProt P15056); experiment: Kinase activity assay, B-Raf; conditions: under the test conditions employed; read-out: activity toward kinase B-Raf, IC50
Method: (§1) The effect of potential modulators of kinase activity of c-kit and other kinases can be measured in a variety of different assays known in the art, e.g., biochemical assays, cell-based assays, and in vivo testing (e.g. model system testing). Such in vitro and/or in vivo assays and tests can be used in the present invention. As an exemplary kinase assay, the kinase activity of c-kit or Fms is measured in AlphaScreening (Packard BioScience). Assays for the activity of various kinases are described, for example, in U.S. patent application Ser. No. 11/473,347 (see also, PCT publication WO2007002433), the disclosure of which is hereby incorporated by reference.

B-Raf V600E = B-Raf V600E (Homo sapiens, UniProt P15056, V600E); experiment: Kinase activity assay, B-Raf V600E; conditions: under the test conditions employed; read-out: activity toward kinase B-Raf V600E, IC50
B-Raf V600E, sequence (P15056 whole entry V600E): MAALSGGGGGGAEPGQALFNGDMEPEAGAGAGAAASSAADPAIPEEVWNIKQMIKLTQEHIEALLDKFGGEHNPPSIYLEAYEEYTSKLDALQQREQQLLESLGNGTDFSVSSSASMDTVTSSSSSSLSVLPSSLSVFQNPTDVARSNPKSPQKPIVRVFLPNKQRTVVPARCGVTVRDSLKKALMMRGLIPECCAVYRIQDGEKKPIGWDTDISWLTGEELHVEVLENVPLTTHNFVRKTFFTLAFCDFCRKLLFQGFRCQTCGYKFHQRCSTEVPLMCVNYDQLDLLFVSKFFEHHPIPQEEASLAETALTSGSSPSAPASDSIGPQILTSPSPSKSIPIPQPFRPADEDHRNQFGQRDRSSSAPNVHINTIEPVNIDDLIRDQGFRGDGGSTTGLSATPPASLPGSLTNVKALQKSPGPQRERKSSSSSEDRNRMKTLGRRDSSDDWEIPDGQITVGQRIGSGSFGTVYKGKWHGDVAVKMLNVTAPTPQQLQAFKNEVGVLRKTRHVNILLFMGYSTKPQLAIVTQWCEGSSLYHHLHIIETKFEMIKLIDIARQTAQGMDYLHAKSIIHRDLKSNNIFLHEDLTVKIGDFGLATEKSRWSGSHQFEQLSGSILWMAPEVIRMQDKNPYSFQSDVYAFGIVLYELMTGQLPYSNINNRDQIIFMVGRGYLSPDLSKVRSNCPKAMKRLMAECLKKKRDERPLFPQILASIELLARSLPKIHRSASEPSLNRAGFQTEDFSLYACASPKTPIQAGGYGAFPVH
Method: as §1

Kdr = Kdr (Homo sapiens, UniProt P35968); experiment: Kinase activity assay, Kdr; conditions: under the test conditions employed; read-out: activity toward kinase Kdr, IC50
Kdr, sequence (P35968 20-1356): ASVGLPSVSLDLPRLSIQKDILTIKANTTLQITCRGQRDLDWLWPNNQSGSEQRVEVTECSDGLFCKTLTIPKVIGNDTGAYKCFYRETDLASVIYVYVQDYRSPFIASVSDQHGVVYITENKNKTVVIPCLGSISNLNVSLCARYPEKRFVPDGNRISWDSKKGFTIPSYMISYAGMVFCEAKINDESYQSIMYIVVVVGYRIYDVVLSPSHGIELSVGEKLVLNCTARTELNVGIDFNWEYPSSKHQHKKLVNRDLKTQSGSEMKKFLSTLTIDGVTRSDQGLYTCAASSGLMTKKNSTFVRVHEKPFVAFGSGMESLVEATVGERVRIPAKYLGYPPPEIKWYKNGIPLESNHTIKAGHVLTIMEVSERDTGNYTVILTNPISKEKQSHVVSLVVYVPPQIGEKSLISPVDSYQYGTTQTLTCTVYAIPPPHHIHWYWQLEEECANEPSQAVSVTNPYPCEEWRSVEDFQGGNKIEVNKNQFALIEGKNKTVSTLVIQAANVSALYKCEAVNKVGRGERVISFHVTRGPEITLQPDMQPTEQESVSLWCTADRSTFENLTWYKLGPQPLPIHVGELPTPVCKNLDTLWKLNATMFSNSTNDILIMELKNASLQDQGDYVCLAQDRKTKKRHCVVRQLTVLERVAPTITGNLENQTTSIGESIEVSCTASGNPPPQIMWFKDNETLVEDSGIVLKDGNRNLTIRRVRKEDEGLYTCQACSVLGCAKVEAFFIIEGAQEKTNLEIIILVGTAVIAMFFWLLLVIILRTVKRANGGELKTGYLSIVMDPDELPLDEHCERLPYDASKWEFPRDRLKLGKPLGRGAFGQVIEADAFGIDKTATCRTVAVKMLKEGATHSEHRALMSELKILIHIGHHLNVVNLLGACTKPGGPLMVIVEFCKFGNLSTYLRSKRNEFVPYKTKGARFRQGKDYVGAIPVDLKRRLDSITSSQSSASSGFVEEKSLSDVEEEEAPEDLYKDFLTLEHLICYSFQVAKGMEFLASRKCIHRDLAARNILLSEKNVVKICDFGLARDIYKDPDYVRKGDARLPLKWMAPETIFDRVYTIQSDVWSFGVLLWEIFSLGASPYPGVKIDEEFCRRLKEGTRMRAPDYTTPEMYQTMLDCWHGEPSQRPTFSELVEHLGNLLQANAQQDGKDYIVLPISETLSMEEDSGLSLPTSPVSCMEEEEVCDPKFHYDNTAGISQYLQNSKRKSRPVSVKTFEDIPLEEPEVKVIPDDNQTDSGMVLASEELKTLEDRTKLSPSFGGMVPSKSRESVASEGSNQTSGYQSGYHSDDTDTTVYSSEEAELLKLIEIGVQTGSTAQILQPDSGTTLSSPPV
Method: as §1

Src = Src (Homo sapiens, UniProt P12931); experiment: Kinase activity assay, Src; conditions: under the test conditions employed; read-out: activity toward kinase Src, IC50
Method: as §1

Fms = Fms (Homo sapiens, UniProt P07333); experiment: Kinase activity assay, Fms; conditions: under the test conditions employed; read-out: activity toward kinase Fms, IC50
Method: as §1

Kit = Kit (Homo sapiens, UniProt P10721); experiment: Kinase activity assay, Kit; conditions: under the test conditions employed; read-out: activity toward kinase Kit, IC50
Kit, sequence (P10721 26-976): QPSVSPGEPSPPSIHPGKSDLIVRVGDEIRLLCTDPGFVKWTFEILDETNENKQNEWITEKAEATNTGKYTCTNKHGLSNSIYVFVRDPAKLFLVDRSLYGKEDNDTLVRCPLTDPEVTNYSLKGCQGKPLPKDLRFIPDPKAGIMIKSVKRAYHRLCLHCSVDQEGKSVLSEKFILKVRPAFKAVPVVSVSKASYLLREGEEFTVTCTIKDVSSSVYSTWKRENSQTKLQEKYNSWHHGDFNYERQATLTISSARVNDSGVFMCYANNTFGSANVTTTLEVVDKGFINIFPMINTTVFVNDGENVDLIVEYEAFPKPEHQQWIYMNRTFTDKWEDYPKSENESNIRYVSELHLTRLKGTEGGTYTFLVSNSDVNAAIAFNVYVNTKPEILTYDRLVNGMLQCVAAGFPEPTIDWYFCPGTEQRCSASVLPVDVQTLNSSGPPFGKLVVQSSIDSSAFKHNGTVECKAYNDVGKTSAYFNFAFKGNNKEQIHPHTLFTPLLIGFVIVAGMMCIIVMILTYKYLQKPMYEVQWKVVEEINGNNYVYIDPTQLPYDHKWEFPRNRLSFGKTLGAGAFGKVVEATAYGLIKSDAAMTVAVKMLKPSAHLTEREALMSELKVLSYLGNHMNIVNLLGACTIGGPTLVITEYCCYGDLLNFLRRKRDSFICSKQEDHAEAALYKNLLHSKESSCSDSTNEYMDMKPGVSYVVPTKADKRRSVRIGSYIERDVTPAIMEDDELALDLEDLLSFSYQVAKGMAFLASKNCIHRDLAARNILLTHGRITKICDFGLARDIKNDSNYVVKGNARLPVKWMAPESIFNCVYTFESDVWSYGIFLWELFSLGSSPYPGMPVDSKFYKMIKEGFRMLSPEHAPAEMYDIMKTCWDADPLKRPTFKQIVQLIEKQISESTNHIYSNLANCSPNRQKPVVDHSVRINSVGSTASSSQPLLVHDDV
Method: as §1

Btk = Btk (Homo sapiens, UniProt Q06187); experiment: Kinase activity assay, Btk; conditions: under the test conditions employed; read-out: activity toward kinase Btk, IC50
Method: as §1

Jnk1 = Jnk1 (Homo sapiens, UniProt P45983); experiment: Kinase activity assay, Jnk1; conditions: under the test conditions employed; read-out: activity toward kinase Jnk1, IC50
Jnk1, sequence (P45983 whole entry): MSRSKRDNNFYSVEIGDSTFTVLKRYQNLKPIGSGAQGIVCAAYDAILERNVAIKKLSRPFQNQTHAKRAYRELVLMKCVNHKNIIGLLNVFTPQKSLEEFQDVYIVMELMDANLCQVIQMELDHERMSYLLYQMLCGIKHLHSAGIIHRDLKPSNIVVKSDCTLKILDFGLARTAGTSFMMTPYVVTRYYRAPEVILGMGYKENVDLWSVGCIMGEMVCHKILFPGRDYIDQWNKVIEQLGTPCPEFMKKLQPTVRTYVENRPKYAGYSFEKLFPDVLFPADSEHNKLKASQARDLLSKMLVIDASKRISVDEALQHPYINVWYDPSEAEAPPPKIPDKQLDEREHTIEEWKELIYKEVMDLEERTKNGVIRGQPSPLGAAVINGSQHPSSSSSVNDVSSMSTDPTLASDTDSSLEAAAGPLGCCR
Method: as §1

Flt1 = Flt1 (Homo sapiens, UniProt P17948); experiment: Kinase activity assay, Flt1; conditions: under the test conditions employed; read-out: activity toward kinase Flt1, IC50
Flt1, sequence (P17948 27-1338): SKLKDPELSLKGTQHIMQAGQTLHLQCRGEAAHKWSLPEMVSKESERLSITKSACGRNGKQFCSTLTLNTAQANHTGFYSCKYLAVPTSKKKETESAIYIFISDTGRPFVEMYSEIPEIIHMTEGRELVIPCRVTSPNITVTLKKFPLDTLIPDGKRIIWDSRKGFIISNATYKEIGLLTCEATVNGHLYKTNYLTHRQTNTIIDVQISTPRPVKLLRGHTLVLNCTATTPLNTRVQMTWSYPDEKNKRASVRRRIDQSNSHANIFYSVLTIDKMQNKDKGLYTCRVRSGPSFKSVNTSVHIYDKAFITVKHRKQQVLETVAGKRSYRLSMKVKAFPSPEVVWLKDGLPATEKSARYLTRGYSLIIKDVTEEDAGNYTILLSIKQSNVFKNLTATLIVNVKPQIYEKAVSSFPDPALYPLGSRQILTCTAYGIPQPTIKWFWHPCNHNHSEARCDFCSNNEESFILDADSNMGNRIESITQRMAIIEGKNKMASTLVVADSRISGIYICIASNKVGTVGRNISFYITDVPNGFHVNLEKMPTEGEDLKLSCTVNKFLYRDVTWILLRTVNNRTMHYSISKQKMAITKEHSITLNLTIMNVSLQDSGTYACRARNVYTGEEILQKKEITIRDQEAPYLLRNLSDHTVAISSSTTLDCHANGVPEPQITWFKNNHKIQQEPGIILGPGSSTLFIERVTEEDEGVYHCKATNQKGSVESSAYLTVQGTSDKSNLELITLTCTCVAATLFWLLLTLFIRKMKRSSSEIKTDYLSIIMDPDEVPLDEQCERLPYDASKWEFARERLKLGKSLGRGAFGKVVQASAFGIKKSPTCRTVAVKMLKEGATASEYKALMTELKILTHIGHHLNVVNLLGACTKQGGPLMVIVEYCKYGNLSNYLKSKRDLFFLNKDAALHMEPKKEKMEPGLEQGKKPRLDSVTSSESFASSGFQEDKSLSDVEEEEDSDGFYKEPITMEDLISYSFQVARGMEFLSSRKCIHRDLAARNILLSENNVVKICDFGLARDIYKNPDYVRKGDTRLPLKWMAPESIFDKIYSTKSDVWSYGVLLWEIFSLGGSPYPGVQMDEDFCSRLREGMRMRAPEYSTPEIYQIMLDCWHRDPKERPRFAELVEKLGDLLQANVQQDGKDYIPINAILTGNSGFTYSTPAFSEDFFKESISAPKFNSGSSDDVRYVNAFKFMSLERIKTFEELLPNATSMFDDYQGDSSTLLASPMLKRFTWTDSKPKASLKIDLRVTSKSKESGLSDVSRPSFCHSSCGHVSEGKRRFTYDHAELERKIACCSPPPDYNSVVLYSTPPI
Method: as §1

B-Raf V600E/T529I = B-Raf V600E/T529I (Homo sapiens, UniProt P15056, T529I/V600E); experiment: Kinase activity assay, B-Raf V600E/T529I; conditions: under the test conditions employed; read-out: activity toward kinase B-Raf V600E/T529I, IC50
B-Raf V600E/T529I, sequence (P15056 whole entry T529I/V600E): as the sequence (P15056 whole entry V600E) above, with T529I counted along it
Method: as §1

c-Raf-1 = c-Raf-1 (Homo sapiens, UniProt P04049); experiment: Kinase activity assay, c-Raf-1; conditions: under the test conditions employed; read-out: activity toward kinase c-Raf-1, IC50
Method: as §1

Measured: IC50

B-Raf, sequence (P15056 whole entry): as the sequence (P15056 whole entry V600E) above, with E600V counted along it

CCCS(=O)(=O)Nc1ccc(F)c(C(=O)c2c[nH]c3ncc(OCCN4CCOCC4)cc23)c1F [P-0041, Propane-1-sulfonic acid {2,4-difluoro-3-[5-(2-morpholin-4-yl-ethoxy)-1H-pyrrolo[2,3-b]pyridine-3-carbonyl]-phenyl}-amide]
≤ 10 µM: B-Raf | B-Raf V600E | Kdr | Src

O=C(c1ccc(Cl)cc1Cl)c1c[nH]c2ncc(Oc3ccccc3)cc12 [P-0036, (2,4-dichloro-phenyl)-(5-phenoxy-1H-pyrrolo[2,3-b]pyridin-3-yl)-methanone]
≤ 10 µM: Fms | Kit | Kdr | Btk

COc1cccc(COc2cnc3[nH]ccc3c2)c1 [P-0003, 5-(3-methoxybenzyloxy)-1H-pyrrolo[2,3-b]pyridine]
≤ 10 µM: Kdr

O=C(c1ccc2cc[nH]c2c1)c1c[nH]c2ncc(OC3CCCC3)cc12 [P-0040, (5-Cyclopentyloxy-1H-pyrrolo[2,3-b]pyridin-3-yl)-(1H-indol-6-yl)-methanone]
≤ 10 µM: Jnk1 | Fms | Kit | Kdr | Flt1 | B-Raf V600E/T529I

COCCOc1cnc2[nH]ccc2c1 [P-0009, 5-(2-methoxyethoxy)-1H-pyrrolo[2,3-b]pyridine]
≤ 10 µM: B-Raf | B-Raf V600E

COc1ccc(COc2cnc3[nH]ccc3c2)c(OC)c1 [P-0008, 5-(2,4-dimethoxybenzyloxy)-1H-pyrrolo[2,3-b]pyridine]
≤ 10 µM: B-Raf V600E/T529I

CCCS(=O)(=O)Nc1ccc(F)c(C(=O)c2c[nH]c3ncc(OC4CCCC4)cc23)c1F [P-0033, propane-1-sulfonic acid [3-(5-cyclopentyloxy-1H-pyrrolo[2,3-b]pyridine-3-carbonyl)-2,4-difluoro-phenyl]-amide]
not listed: Btk
≤ 10 µM: all other assays above

CCCS(=O)(=O)Nc1ccc(F)c(C(=O)c2c[nH]c3ncc(S(=O)(=O)c4ccc(C)cc4)cc23)c1F [P-0047, Propane-1-sulfonic acid {2,4-difluoro-3-[5-(toluene-4-sulfonyl)-1H-pyrrolo[2,3-b]pyridine-3-carbonyl]-phenyl}-amide]
≤ 10 µM: B-Raf | B-Raf V600E | Kdr

c1ccc(COc2cnc3[nH]ccc3c2)cc1 [P-0002, 5-(benzyloxy)-1H-pyrrolo[2,3-b]pyridine]
≤ 10 µM: Jnk1 | Kit | Kdr

CS(=O)(=O)c1ccc(Oc2cnc3[nH]cc(C(=O)c4ccc(F)cc4Cl)c3c2)cc1 [P-0038, (2-Chloro-4-fluoro-phenyl)-[5-(4-methanesulfonyl-phenoxy)-1H-pyrrolo[2,3-b]pyridin-3-yl]-methanone]
≤ 10 µM: Kdr | Flt1

c1ccc(Oc2cnc3[nH]ccc3c2)cc1 [P-0035, 5-phenoxy-1H-pyrrolo[2,3-b]pyridine]
≤ 10 µM: Fms | Kit | Kdr

CCCS(=O)(=O)Nc1ccc(F)c(C(=O)c2c[nH]c3ncc(OC4CCOCC4)cc23)c1F [P-0045, Propane-1-sulfonic acid {2,4-difluoro-3-[5-(tetrahydro-pyran-4-yloxy)-11H-pyrrolo[2,3-b]pyridine-3-carbonyl]-phenyl}-amide]
not listed: Btk | Jnk1 | Flt1 | c-Raf-1
≤ 10 µM: all other assays above

c1cc2cc(OC3CCCC3)cnc2[nH]1 [P-0001, 5-cyclopentyloxy-1H-pyrrolo[2,3-b]pyridine]
≤ 10 µM: Jnk1 | Kit | Kdr

O=C(O)Cc1cccc(Oc2cnc3[nH]cc(C(=O)c4ccc(F)cc4Cl)c3c2)c1 [P-0039, {3-[3-(2-Chloro-4-fluoro-benzoyl)-1H-pyrrolo[2,3-b]pyridin-5-yloxy]-phenyl}-acetic acid]
≤ 10 µM: Fms | Kit | Kdr | Btk | B-Raf V600E/T529I

CCCS(=O)(=O)Nc1ccc(F)c(C(=O)c2c[nH]c3ncc(OCc4ccccc4)cc23)c1F [P-0034, Propane-1-sulfonic acid [3-(5-benzyloxy-1H-pyrrolo[2,3-b]pyridine-3-carbonyl)-2,4-difluoro-phenyl]-amide]
≤ 10 µM: c-Raf-1 | B-Raf | B-Raf V600E | Kdr | Flt1 | B-Raf V600E/T529I

Clc1ccc(Cc2c[nH]c3ncc(Oc4ccccc4)cc23)c(Cl)c1 [P-0037, 3-(2,4-dichloro-benzyl)-5-phenoxy-1H-pyrrolo[2,3-b]pyridine]
≤ 10 µM: Fms | Kit | Kdr

FC(F)Oc1ccc(COc2cnc3[nH]ccc3c2)cc1 [P-0014, 5-(4-(difluoromethoxy)benzyloxy)-1H-pyrrolo[2,3-b]pyridine]
≤ 10 µM: Kdr

c1ccc(CN2CC[C@H](Oc3cnc4[nH]ccc4c3)C2)cc1 [P-0026, 5-((S)-1-benzylpyrrolidin-3-yloxy)-1H-pyrrolo[2,3-b]pyridine]
≤ 10 µM: B-Raf

c1cc2cc(OCC3CCOCC3)cnc2[nH]1 [P-0019, 5-((tetrahydro-2H-pyran-4-yl)methoxy)-1H-pyrrolo[2,3-b]pyridine]
≤ 10 µM: B-Raf | B-Raf V600E
